Results from the NIST ThermoML archive (doi:10.1021/je700026d).

Legend:
[1] = Liquid; for speed of sound: 100 kPa, Linear variable-path acoustic interferometer; for viscosity / mass density: 101.3 kPa; for viscosity: Capillary tube (Ostwald / Ubbelohde) method; for mass density: Pycnometric method
[2] = xn = mol fraction of the nth substance listed; conditions: Liquid; for speed of sound: 100 kPa, Linear variable-path acoustic interferometer; for viscosity: Capillary tube (Ostwald / Ubbelohde) method; for mass density: Pycnometric method

COCCOC [1,2-dimethoxyethane]
[1]
Conditions	mass density [kg/m3]	speed of sound [m/s]	viscosity [mPa·s]
298.15 K	861.5	1146.2	0.409
308.15 K	850.7	–	0.366
318.15 K	839.6	–	0.33

COCCO [2-methoxyethan-1-ol]
[1]
Conditions	mass density [kg/m3]	speed of sound [m/s]	viscosity [mPa·s]
298.15 K	959.7	1339.4	1.543
308.15 K	951.5	–	1.257
318.15 K	945.9	–	1.051

COCCO [2-methoxyethan-1-ol] + NC=O
Conditions	speed of sound [m/s]
[2], 298.15 K, x2 = 0	1339.4

[2], 101.3 kPa, x2 = 0
Conditions	mass density [kg/m3]	viscosity [mPa·s]
298.15 K	959.7	1.543
308.15 K	951.5	1.257
318.15 K	945.9	1.051

CC#N [acetonitrile]
[1]
Conditions	mass density [kg/m3]	speed of sound [m/s]	viscosity [mPa·s]
298.15 K	776	1260.2	0.344
308.15 K	766.3	–	0.313
318.15 K	755	–	0.289

CC#N [acetonitrile] + NC=O
Conditions	speed of sound [m/s]
[2], 298.15 K, x2 = 0	1260.2

[2], 101.3 kPa, x2 = 0
Conditions	mass density [kg/m3]	viscosity [mPa·s]
298.15 K	776	0.344
308.15 K	766.3	0.313
318.15 K	755	0.289

CC(=O)c1ccccc1 [acetophenone]
[1]
Conditions	mass density [kg/m3]	speed of sound [m/s]	viscosity [mPa·s]
298.15 K	1023.1	1296.4	1.653
308.15 K	1014.8	–	1.412
318.15 K	1007.5	–	1.117

C[S+](C)[O-] [dimethyl sulfoxide]
[1]
Conditions	mass density [kg/m3]	speed of sound [m/s]	viscosity [mPa·s]
298.15 K	1095.4	1493	2.042
308.15 K	1085.9	–	1.568
318.15 K	1076.9	–	1.485

C[S+](C)[O-] [dimethyl sulfoxide] + NC=O
Conditions	speed of sound [m/s]
[2], 298.15 K, x2 = 0	1493

[2], 101.3 kPa, x2 = 0
Conditions	mass density [kg/m3]	viscosity [mPa·s]
298.15 K	1095.4	2.042
308.15 K	1085.9	1.568
318.15 K	1076.9	1.485

NC=O [formamide]
[1]
Conditions	mass density [kg/m3]	speed of sound [m/s]	viscosity [mPa·s]
298.15 K	1129.2	1591.3	3.302
308.15 K	1120.5	–	2.542
318.15 K	1111.1	–	2.001

NC=O [formamide] + CC(=O)c1ccccc1
Conditions	speed of sound [m/s]
[2], 298.15 K, x1 = 1	1591.3

[2], 101.3 kPa, x1 = 1
Conditions	mass density [kg/m3]	viscosity [mPa·s]
298.15 K	1129.2	3.302
308.15 K	1120.5	2.542
318.15 K	1111.1	2.001

NC=O [formamide] + COCCOC
Conditions	speed of sound [m/s]
[2], 298.15 K, x1 = 1	1591.3

[2], x1 = 1
Conditions	mass density, 298.15 K [kg/m3]	mass density, 308.15 K [kg/m3]	mass density, 318.15 K [kg/m3]	viscosity, 298.15 K [mPa·s]	viscosity, 308.15 K [mPa·s]	viscosity, 318.15 K [mPa·s]
101 kPa	1129.2	1120.5	1111.1	–	–	–
101.3 kPa	–	–	–	3.302	2.542	2.001
